In general, Ki refers to the dissociation constant of the complex between target and ligand, obtained from inhibition or displacement.

This is an account of results in US11447505B1, “Pyrrolo[2,3-b]pyridine compounds and their use in the treatment of cancer” (priority 2017, dated 2022).

One assay addresses ROCK2 (Homo sapiens (Human), UniProt O75116). Put plainly: ROCK2 kinase assay (IMAP fluorescence polarization). The class given is biochemical. The settings on record: 1 μM ATP; read-out: ROCK2 Average Ki. On the technique in general: In fluorescence polarisation assays a small probe gives low polarisation when free and higher when bound to something large.
For another assay, the target named is MRCKβ (Homo sapiens (Human), UniProt Q9Y5S2). Briefly: MRCKβ kinase assay (IMAP fluorescence polarization). To be noted: 1 μM ATP; read-out: MRCK-B Average Ki. The class given is biochemical. An excerpt:
MRCKα, MRCKβ, ROCK1 and ROCK2 Kinase Assays

For the next assay, the target named is ROCK1 (Homo sapiens (Human), UniProt Q13464). To be noted: read-out: ROCK1 Average Ki; 1 μM ATP.
Chain of ROCK1 (Q13464 2-1354 limits assumed): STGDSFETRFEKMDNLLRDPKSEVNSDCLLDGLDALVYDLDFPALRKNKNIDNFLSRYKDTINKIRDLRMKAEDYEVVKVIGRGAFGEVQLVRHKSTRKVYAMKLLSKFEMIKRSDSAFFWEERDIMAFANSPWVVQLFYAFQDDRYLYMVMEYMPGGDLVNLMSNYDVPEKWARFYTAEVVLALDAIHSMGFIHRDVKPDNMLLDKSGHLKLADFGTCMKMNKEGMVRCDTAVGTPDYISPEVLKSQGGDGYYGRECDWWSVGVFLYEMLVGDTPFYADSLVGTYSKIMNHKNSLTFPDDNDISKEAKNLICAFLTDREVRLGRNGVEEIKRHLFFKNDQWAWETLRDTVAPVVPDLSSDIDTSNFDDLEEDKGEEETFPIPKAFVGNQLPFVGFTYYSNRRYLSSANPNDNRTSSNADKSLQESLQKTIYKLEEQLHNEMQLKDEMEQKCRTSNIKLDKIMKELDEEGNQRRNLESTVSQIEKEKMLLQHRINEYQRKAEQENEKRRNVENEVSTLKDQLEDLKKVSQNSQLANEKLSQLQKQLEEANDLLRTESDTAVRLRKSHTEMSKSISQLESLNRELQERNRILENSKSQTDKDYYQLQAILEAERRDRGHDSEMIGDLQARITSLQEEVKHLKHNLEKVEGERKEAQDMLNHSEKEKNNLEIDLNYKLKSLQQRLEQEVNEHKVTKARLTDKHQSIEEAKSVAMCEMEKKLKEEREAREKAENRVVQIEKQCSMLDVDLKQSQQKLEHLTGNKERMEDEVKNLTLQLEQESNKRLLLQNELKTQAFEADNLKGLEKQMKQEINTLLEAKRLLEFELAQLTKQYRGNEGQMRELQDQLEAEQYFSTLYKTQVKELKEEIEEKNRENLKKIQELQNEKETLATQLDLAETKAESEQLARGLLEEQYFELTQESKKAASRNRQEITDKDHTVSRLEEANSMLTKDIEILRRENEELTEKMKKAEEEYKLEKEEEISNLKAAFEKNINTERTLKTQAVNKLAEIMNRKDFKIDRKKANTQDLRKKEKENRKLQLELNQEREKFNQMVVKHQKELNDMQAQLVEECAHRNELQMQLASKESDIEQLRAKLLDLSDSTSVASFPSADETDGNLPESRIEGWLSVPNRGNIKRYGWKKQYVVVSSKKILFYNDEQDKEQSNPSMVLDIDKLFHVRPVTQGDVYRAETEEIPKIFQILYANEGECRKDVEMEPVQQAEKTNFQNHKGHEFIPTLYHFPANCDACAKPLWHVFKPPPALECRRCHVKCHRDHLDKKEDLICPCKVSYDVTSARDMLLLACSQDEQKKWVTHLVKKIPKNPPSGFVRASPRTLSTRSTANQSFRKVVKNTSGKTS

Chain of ROCK2 (O75116 whole entry): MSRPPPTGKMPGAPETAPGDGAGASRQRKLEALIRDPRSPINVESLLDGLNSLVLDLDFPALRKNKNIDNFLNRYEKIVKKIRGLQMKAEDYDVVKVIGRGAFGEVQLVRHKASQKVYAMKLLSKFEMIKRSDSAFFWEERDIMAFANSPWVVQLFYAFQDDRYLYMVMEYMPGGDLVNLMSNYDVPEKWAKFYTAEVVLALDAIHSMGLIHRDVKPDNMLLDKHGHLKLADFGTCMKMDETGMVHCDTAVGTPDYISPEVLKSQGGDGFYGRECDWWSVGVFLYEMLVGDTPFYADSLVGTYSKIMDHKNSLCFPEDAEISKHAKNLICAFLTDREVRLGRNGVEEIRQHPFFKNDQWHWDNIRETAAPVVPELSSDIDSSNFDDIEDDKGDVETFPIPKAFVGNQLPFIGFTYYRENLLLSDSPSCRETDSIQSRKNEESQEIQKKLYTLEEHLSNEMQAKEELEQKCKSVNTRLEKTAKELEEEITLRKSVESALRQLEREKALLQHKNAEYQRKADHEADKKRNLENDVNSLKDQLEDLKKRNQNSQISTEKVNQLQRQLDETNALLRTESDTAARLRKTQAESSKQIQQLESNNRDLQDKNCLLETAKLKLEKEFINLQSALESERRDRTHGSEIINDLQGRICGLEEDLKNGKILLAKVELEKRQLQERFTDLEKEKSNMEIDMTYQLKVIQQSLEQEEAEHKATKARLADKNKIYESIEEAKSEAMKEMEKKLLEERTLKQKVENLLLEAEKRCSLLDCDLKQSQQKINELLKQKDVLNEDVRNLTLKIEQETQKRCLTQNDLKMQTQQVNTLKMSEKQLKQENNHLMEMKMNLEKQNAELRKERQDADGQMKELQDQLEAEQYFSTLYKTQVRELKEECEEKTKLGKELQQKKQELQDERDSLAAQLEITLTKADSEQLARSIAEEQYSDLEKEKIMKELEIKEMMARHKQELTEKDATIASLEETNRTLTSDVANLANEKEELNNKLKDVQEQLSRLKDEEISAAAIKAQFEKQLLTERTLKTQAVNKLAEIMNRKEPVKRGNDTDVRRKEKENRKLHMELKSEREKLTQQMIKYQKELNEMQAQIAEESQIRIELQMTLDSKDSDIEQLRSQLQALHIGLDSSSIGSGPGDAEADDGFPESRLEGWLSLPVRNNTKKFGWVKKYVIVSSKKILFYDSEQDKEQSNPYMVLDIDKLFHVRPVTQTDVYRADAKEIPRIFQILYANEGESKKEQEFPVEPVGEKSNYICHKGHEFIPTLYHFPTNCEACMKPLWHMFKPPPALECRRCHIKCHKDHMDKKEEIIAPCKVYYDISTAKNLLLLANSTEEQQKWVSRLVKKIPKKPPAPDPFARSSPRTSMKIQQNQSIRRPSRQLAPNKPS

In the case of `c1ccc(-c2c[nH]c3nccc(N4CCCCC4)c23)nc1` [Example E23, 4-(1-piperidyl)-3-(2-pyridyl)-1H-pyrrolo[2,3-b]pyridine], the inhibitory constant (Ki) at ROCK2 is 699 nM; on MRCKβ, 134 nM; at ROCK1 it was 1690 nM.
`c1cc(-c2c[nH]c3nccc(N4CCCCC4)c23)ncn1` [Example E4, 4-(1-piperidyl)-3-pyrimidin-4-yl-1H-pyrrolo[2,3-b]pyridine]: the inhibitory constant (Ki) worked out at 19.7 nM on ROCK2, 15.5 nM at MRCKβ and 28.3 nM at ROCK1.
As to `CN[C@H]1CCCN(c2ccnc3[nH]cc(-c4ccc(F)cn4)c23)C1` [Example E51, (3S)-1-[3-(5-fluoro-2-pyridyl)-1H-pyrrolo[2,3-b]pyridin-4-yl]-N-methyl-piperidin-3-amine], the Ki on ROCK2 was 2190 nM; on MRCKβ, 7.41 nM; on ROCK1, 8930 nM.
On to `CN[C@H]1CCCN(c2ccnc3[nH]cc(-c4cncc(F)c4)c23)C1` [Example E50, (3S)-1-[3-(5-fluoro-3-pyridyl)-1H-pyrrolo[2,3-b]pyridin-4-yl]-N-methyl-piperidin-3-amine], for which the Ki at ROCK2 was found to be 578 nM; at MRCKβ, 0.729 nM; on ROCK1, 2050 nM.
For `CN1CC[C@H](COc2ccnc3[nH]cc(-c4cncnc4)c23)C1` [Example E225, 4-[[(3S)-1-methylpyrrolidin-3-yl]methoxy]-3-pyrimidin-5-yl-1H-pyrrolo[2,3-b]pyridine], in that order: 140 nM, 11.4 nM and 190 nM.
Consider `CC(C)N[C@H]1CCCN(c2ccnc3[nH]cc(-c4cncnc4)c23)C1` [Example E76, (3S)-N-isopropyl-1-(3-pyrimidin-5-yl-1H-pyrrolo[2,3-b]pyridin-4-yl)piperidin-3-amine], for which the inhibition constant Ki on ROCK2 amounted to 16800 nM; at MRCKβ it was 871 nM; on ROCK1, 32400 nM.
The like results for `N#Cc1c[nH]c2nccc(N3CCCC(c4ccccc4)C3)c12` (centres unmarked) [Example E112, 4-(3-phenyl-1-piperidyl)-1H-pyrrolo[2,3-b]pyridine-3-carbonitrile] were, in that order, 728 nM, 558 nM and 682 nM.
Consider `OCCN[C@H]1CCCN(c2ccnc3[nH]cc(-c4cncnc4)c23)C1` [Example E56, 2-[[(3S)-1-(3-pyrimidin-5-yl-1H-pyrrolo[2,3-b]pyridin-4-yl)-3-piperidyl]amino]ethanol], for which the inhibition constant (Ki) stood at 573 nM at ROCK2, 2.23 nM at MRCKβ and 1390 nM on ROCK1.
The like results for `c1cc(-c2c[nH]c3nccc(N4CCCC5(CCCCN5)C4)c23)cnn1` (centres unmarked) [Example E172, 8-(3-pyridazin-4-yl-1H-pyrrolo[2,3-b]pyridin-4-yl)-1,8-diazaspiro[5.5]undecane] were, in that order, 14.6 nM, 0.723 nM and 33.6 nM.
As for `Cn1cc(-c2c[nH]c3nccc(N4CCCCC4)c23)cn1` [Example E24, 3-(1-methylpyrazol-4-yl)-4-(1-piperidyl)-1H-pyrrolo[2,3-b]pyridine], the Ki on ROCK2 worked out at 20.8 nM; on MRCKβ, 37.6 nM; at ROCK1 it was 43.5 nM.
Regarding `CN[C@H]1CCCN(c2ccnc3[nH]cc(-c4cnc(C)nc4)c23)C1` [Example E75, (3S)-N-methyl-1-[3-(2-methylpyrimidin-5-yl)-1H-pyrrolo[2,3-b]pyridin-4-yl]piperidin-3-amine], the figures for the Ki on ROCK2, at MRCKβ and at ROCK1 were 6420 nM, 25.4 nM and 21700 nM, respectively.
For `CN[C@H]1CCCN(c2ccnc3[nH]cc(C#N)c23)C1` [Example E74, 4-[(3S)-3-(methylamino)-1-piperidyl]-1H-pyrrolo[2,3-b]pyridine-3-carbonitrile], in that order: 222 nM, 6.16 nM and 637 nM.
Take “4-[4-(1-piperidyl)-1H-pyrrolo[2,3-b]pyridin-3-yl]pyridin-2-amine [Example E9]”: the results for the Ki on ROCK2, at MRCKβ and on ROCK1 were 1.25 nM, 0.886 nM and 1.5 nM, respectively.
For the molecule `c1ncc(-c2c[nH]c3nccc(OC[C@H]4CCNC4)c23)cn1` [Example E215, 3-pyrimidin-5-yl-4-[[(3S)-pyrrolidin-3-yl]methoxy]-1H-pyrrolo[2,3-b]pyridine], the inhibitory constant (Ki) at ROCK2 was found to be 34.7 nM; on MRCKβ, 3.86 nM; at ROCK1 it was 47.8 nM.
In the case of `c1cc(N2CCCCC2)c2c(-c3ccc4[nH]ncc4c3)c[nH]c2n1` [Example E19, 3-(1H-indazol-5-yl)-4-(1-piperidyl)-1H-pyrrolo[2,3-b]pyridine], the Ki on ROCK2 came out at 115 nM; on MRCKβ it was 213 nM; on ROCK1, 144 nM.
Turning to `CNC1CCCN(c2ccnc3[nH]cc(-c4cncnc4)c23)C1` (centres unmarked) [Example E62, N-methyl-1-(3-pyrimidin-5-yl-1H-pyrrolo[2,3-b]pyridin-4-yl)piperidin-3-amine], the inhibition constant (Ki) on ROCK2 amounted to 314 nM; on MRCKβ, 4.1 nM; on ROCK1, 360 nM.
For the molecule `Nc1cccc(-c2c[nH]c3nccc(N4CCCCC4)c23)n1` [Example E3, 6-[4-(1-piperidyl)-1H-pyrrolo[2,3-b]pyridin-3-yl]pyridin-2-amine], the Ki stood at 13.8 nM on ROCK2, 39.9 nM on MRCKβ and 28.6 nM at ROCK1.
The like results for `CN[C@H]1CCCN(c2ccnc3[nH]cc(-c4cccnc4)c23)C1` [Example E53, (3S)-N-methyl-1-[3-(3-pyridyl)-1H-pyrrolo[2,3-b]pyridin-4-yl]piperidin-3-amine] were, in that order, 335 nM, 1.27 nM and 50500 nM.
For `c1ncc(-c2c[nH]c3nccc(N4CCC[C@]5(CCCCN5)C4)c23)cn1` [Example E192, (6R)-8-(3-pyrimidin-5-yl-1H-pyrrolo[2,3-b]pyridin-4-yl)-1,8-diazaspiro[5.5]undecane], in that order: 428 nM, 8.33 nM and 50500 nM.
Consider `c1ncc(-c2c[nH]c3nccc(O[C@@H]4CCCNC4)c23)cn1` [Example E217, 4-[[(3R)-3-piperidyl]oxy]-3-pyrimidin-5-yl-1H-pyrrolo[2,3-b]pyridine], for which the Ki on ROCK2 worked out at 77.5 nM; on MRCKβ, 4.01 nM; on ROCK1, 114 nM.
With `c1cc(N2CCC2)c2c(-c3cc[nH]n3)c[nH]c2n1` [Example E28, 4-(azetidin-1-yl)-3-(1H-pyrazol-3-yl)-1H-pyrrolo[2,3-b]pyridine], the Ki on ROCK2 came to 9.8 nM; at MRCKβ, 29.4 nM; at ROCK1 it was 14.4 nM.
In the case of `c1ccc(-c2c[nH]c3nccc(N4CCC4)c23)nc1` [Example E25, 4-(azetidin-1-yl)-3-(2-pyridyl)-1H-pyrrolo[2,3-b]pyridine], the figures for the Ki on ROCK2, on MRCKβ and on ROCK1 were 1500 nM, 178 nM and 10000 nM, respectively.
For `O[C@H]1CCCN(c2ccnc3[nH]cc(-c4cncnc4)c23)C1` [Example E101, (3S)-1-(3-pyrimidin-5-yl-1H-pyrrolo[2,3-b]pyridin-4-yl)piperidin-3-ol], the values for the inhibitory constant (Ki) on ROCK2, at MRCKβ and at ROCK1 were 363 nM, 22.5 nM and 567 nM, respectively.
For `c1cc(-c2c[nH]c3nccc(N4CCCCC4)c23)cnn1` [Example E14, 4-(1-piperidyl)-3-pyridazin-4-yl-1H-pyrrolo[2,3-b]pyridine], in that order: 6.5 nM, 9.4 nM and 9 nM.
The like results for `FC1CCN([C@H]2CCCN(c3ccnc4[nH]cc(-c5cncnc5)c34)C2)CC1` [Example E94, 4-[(3S)-3-(4-fluoro-1-piperidyl)-1-piperidyl]-3-pyrimidin-5-yl-1H-pyrrolo[2,3-b]pyridine] were, in that order, 495 nM, 9.33 nM and 913 nM.
As to `c1ncc(-c2c[nH]c3nccc(NC4CCNCC4)c23)cn1` [Example E89, N-(4-piperidyl)-3-pyrimidin-5-yl-1H-pyrrolo[2,3-b]pyridin-4-amine], the values for the Ki on ROCK2, on MRCKβ and at ROCK1 were 92.7 nM, 20.5 nM and 109 nM, respectively.
On to `Fc1cncc(-c2c[nH]c3nccc(N4CCCCC4)c23)c1` [Example E11, 3-(5-fluoro-3-pyridyl)-4-(1-piperidyl)-1H-pyrrolo[2,3-b]pyridine], for which the values for the inhibitory constant (Ki) at ROCK2, at MRCKβ and at ROCK1 were 374 nM, 42.3 nM and 755 nM, respectively.
In the case of `COC[C@@H]1CCCN1c1ccnc2[nH]cc(C#N)c12` [Example E108, 4-[(2S)-2-(methoxymethyl)pyrrolidin-1-yl]-1H-pyrrolo[2,3-b]pyridine-3-carbonitrile], the Ki worked out at 18.8 nM at ROCK2, 3.89 nM on MRCKβ and 21.8 nM on ROCK1.
For `c1ncc(-c2c[nH]c3nccc(N4CCC5(CCNCC5)C4)c23)cn1` [Example E191, 2-(3-pyrimidin-5-yl-1H-pyrrolo[2,3-b]pyridin-4-yl)-2,8-diazaspiro[4.5]decane], in that order: 7.7 nM, 2.05 nM and 9.28 nM.
As for `c1ncc(-c2c[nH]c3nccc(N4CCC5(CCNC5)CC4)c23)cn1` [Example E190, 8-(3-pyrimidin-5-yl-1H-pyrrolo[2,3-b]pyridin-4-yl)-2,8-diazaspiro[4.5]decane], the Ki at ROCK2 worked out at 8.7 nM; on MRCKβ, 0.973 nM; on ROCK1 it was 9.3 nM.
For `NC1CCN(c2ccnc3[nH]cc(-c4cncnc4)c23)CC1` [Example E65, 1-(3-pyrimidin-5-yl-1H-pyrrolo[2,3-b]pyridin-4-yl)piperidin-4-amine], in that order: 138 nM, 1.65 nM and 128 nM.
Turning to `c1csc(-c2c[nH]c3nccc(N4CC[C@]5(CCCCN5)C4)c23)n1` [Example E132, 2-[4-[(5R)-2,6-diazaspiro[4.5]decan-2-yl]-1H-pyrrolo[2,3-b]pyridin-3-yl]thiazole], the Ki on MRCKβ was 4.11 nM; at ROCK1 it was 100000 nM.
